Measurements as given in patent publication US11712466B2, “Vaccine composition” (TOHOKU UNIVERSITY, priority 2017, dated 2023).
Entries after “also recorded” stand apart in the source; their conditions may differ. Ends that are not written are not given here.

Tests used:
[1] = test system: mTwist1; assay: Gene expression in excised tumor tissue by real-time PCR, mTwist1; assay type: in vivo, mouse; settings: tumor excised two weeks after implantation
Experimental: (§1) The mouse implanted with the tumor cells in Example 2 was sacrificed two weeks after implantation of the tumor cells, and a tumor was excised from the right axillary subcutaneous region. By using RNeasy Plus Kit (Qiagen, Inc.), extraction of the total RNA from the excised tumor and purification thereof were carried out. By using the obtained total RNA as a template, cDNA was synthesized by reverse transcription reaction. The cDNA was analyzed by performing real-time PCR using a mixed solution of the obtained cDNA and SYBR green (TAKARA BIO, Inc.).

[2] = test system: mCD31; assay: Gene expression in excised tumor tissue by real-time PCR, mCD31; assay type: in vivo, mouse; settings: 20 μg vaccine; tumor excised two weeks after implantation
Experimental: as §1

[3] = test system: mouse melanoma cells (B16F1); assay: Subcutaneous implant model, tumor growth inhibitory effect (B16F1); assay type: in vivo; settings: immunized C57BL/6J mice, cells implanted s.c. on day 29, measured 14 days after implantation
Experimental: After 2 weeks from the administration of each peptide vaccine and incomplete Freund's adjuvant in Example 1 (on day 29 after the initial peptide vaccine administration), mouse-derived tumor cells were implanted in an immunized mouse, whereby a subcutaneous implant model was prepared. Specifically, mouse lung cancer cells (Lewis lung cancer cells (LLC)) or mouse melanoma cells (B16F1) (all have C57BL/6J as a genetic background) cultured in a RPMI+10% FBS medium were collected by centrifugation, and a cell suspension (1.0×10^8 cells/mL) was prepared with a serum-free medium, and 0.1 mL (1.0×10^7 cells/animal) of the cell suspension was implanted in a right axillary subcutaneous region of a mouse using a 27G injection needle and a syringe, whereby a subcutaneous implant model of tumor cells was prepared.

[4] = test system: mouse lung cancer cells (LLC); assay: Metastasis inhibitory effect in vivo, LLC injected through tail vein, lung metastatic lesion; settings: 20 or 100 μg, day 21 after LLC injection
Experimental: 20 μg or 100 μg of KLH (control) and 20 μg or 100 μg of the peptide represented by SEQ ID NO: 4 conjugated with KLH (MTG peptide vaccine) were prepared with physiological saline so that the total amount was 100 μL, respectively, whereby KLH-mixed solutions were obtained. To each of the KLH-mixed solutions (100 μL), an equal amount of complete Freund's adjuvant or Alhydrogel (registered trademark) (Invitrogen) was added. The obtained mixture (200 μL) was intradermally (ID) administered to C57BL/6J male mice (n=5) aged 8 weeks, whereby initial immunization was carried out (0 day). Incidentally, in the intradermal administration, 200 μL was administered at a dose of 100 μL each to two sites. After 2 weeks from the administration (14 days), booster immunization was carried out by subcutaneously administering a mixture of each of the KLH-mixed solutions (100 μL) and an equal amount of incomplete Freund's adjuvant or Alhydrogel (registered trademark) to the mice. […] Further, at that time point, the blood was collected from each mouse, and the antibody titer of an antibody specific to the VASH2 protein was measured by ELISA. The mice were sacrificed on day 21 after the injection of LLC (49 days), and the lung metastatic lesion was analyzed (FIG. 7). […]

MTG peptide vaccine: MTG peptide MTGSAADTHR (SEQ ID NO: 4) conjugated with KLH as carrier by a glutaraldehyde method (also: conjugated with KLH by glutaraldehyde)
expression of mTwist1 (epithelial-mesenchymal transition marker) in tumor tissue [1]: dose-dependent expression inhibitory effect; also recorded: significantly inhibited depending on the dose | expression of mCD31 (angiogenesis marker) in tumor tissue [2]: expression of mCD31 was inhibited; also recorded: a tendency to inhibit the expression | tumor size (tumorigenesis), B16F1 melanoma cells [3]: marked inhibition of tumorigenesis; also recorded: marked inhibition of tumor growth | metastasis of cancer cells (lung metastatic lesion), LLC ([4]; Alhydrogel adjuvant): inhibited metastasis of cancer cells | metastasis of cancer cells (lung metastatic lesion), LLC ([4]; Freund's adjuvant): inhibited metastasis of cancer cells
